Experimental data from the supplement of paper PMC10307832.

Assays:
Test in all cases: relative viability (nuclei count vs DMSO), 5 days (fraction); higher = more cells survive
[1] = compound: C1CCC(CC1)N(CCNCCC2=C3C(=C(C=C2)O)NC(=O)CO3)C(=O)CCNCCC4=CC(=C(C=C4)Cl)Cl [AZ505] + Cc1nc(NC(=O)N2CCC[C@H]2C(N)=O)sc1-c1ccnc(C(C)(C)C(F)(F)F)c1 [Alpelisib] (partner 2 µM)
Procedure, shortened: (§1)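 The day after seeding in 1536-well plates, lung cancer cell lines were treated by pin tool with a single drug, or with a fixed anchor-drug dose together with five library-drug doses (not always all listed) in √10 steps. After 5 days, a combined fix-and-stain solution (final 0.05% Triton X-100, 1% formaldehyde, 1 ug/ml Hoechst) was added. Nuclei counted on 4× images gave relative viability as treated counts over vehicle counts, reported as the median of duplicate plates.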

[2] = compound: Cn1c(=O)n(-c2ccc(C(C)(C)C#N)cc2)c2c3cc(-c4cnc5ccccc5c4)ccc3ncc21 [Dactolisib] + Nc1nc2[nH]cc(CCc3ccc(C(=O)N[C@@H](CCC(=O)O)C(=O)O)cc3)c2c(=O)[nH]1 [Pemetrexed] (partner 0.2 µM)
Procedure, shortened: as §1

[3] = compound: C1CCC(CC1)N(CCNCCC2=C3C(=C(C=C2)O)NC(=O)CO3)C(=O)CCNCCC4=CC(=C(C=C4)Cl)Cl [AZ505]
Procedure, shortened: (§2)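 Five library-drug doses, separated by factors of √10, were pinned into 1536-well plates holding lung cancer cell lines after an overnight stay at 37 °C. Cells were fixed, permeabilised and Hoechst-stained in one step after 5 days without medium change, then imaged at 4×. Viability compares treated-well with vehicle-well nuclei, counted in MetaXpress, as a median across plates. Passing plates had control CV below 25% and at least one doubling.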

[4] = compound: Cn1c(=O)n(-c2ccc(C(C)(C)C#N)cc2)c2c3cc(-c4cnc5ccccc5c4)ccc3ncc21 [Dactolisib]
Procedure, shortened: as §2

Cell Line | relative viability ([1]; first compound 0.08 µM) | relative viability ([1]; first compound 0.253 µM) | relative viability ([1]; first compound 0.8 µM) | relative viability ([1]; first compound 2.53 µM) | relative viability ([1]; first compound 8 µM) | relative viability ([2]; first compound 0.002 µM) | relative viability ([2]; first compound 0.006325 µM) | relative viability ([2]; first compound 0.02 µM) | relative viability ([2]; first compound 0.06325 µM) | relative viability ([2]; first compound 0.2 µM) | relative viability ([3]; 0.08 µM) | relative viability ([3]; 0.253 µM) | relative viability ([3]; 0.8 µM) | relative viability ([3]; 2.53 µM) | relative viability ([3]; 8 µM) | relative viability ([4]; 0.002 µM) | relative viability ([4]; 0.006325 µM) | relative viability ([4]; 0.02 µM) | relative viability ([4]; 0.06325 µM) | relative viability ([4]; 0.2 µM)
LC-2-ad | 0.774 | 0.797 | 0.832 | 0.957 | 0.877 | 0.263 | 0.302 | 0.276 | 0.264 | 0.272 | 0.902 | 0.922 | 1.01 | 1.07 | 0.998 | 1.03 | 0.959 | 1.06 | 0.823 | 0.58
NCI-H1703 | 0.292 | 0.372 | 0.414 | 0.341 | 0.369 | – | – | – | – | – | 0.733 | 0.853 | 1.04 | 1.11 | 1.03 | – | 0.768 | 0.784 | 0.479 | 0.405
NCI-H1437 | 0.852 | 0.93 | 0.876 | 0.932 | 1 | 0.309 | 0.347 | 0.312 | 0.27 | 0.227 | 0.977 | 1 | 0.983 | 1.01 | 0.991 | 1.01 | 0.991 | 1.03 | 0.914 | 0.741
SW 1573 | 0.658 | 0.714 | 0.661 | 0.82 | 0.858 | 0.696 | 0.768 | 0.584 | 0.284 | 0.203 | 0.9 | 0.964 | 0.899 | 0.914 | 0.958 | 1.07 | 0.838 | 0.696 | 0.414 | 0.284
H3255 | 0.62 | 0.8 | 0.715 | 0.705 | 0.813 | 0.568 | 0.44 | 0.558 | 0.464 | 0.474 | 0.901 | 1 | 1.01 | 1.06 | 1.03 | 1.09 | 0.908 | 0.91 | 0.784 | 0.627
Calu-6 | 0.842 | 1.07 | 0.934 | 0.937 | 0.962 | – | – | – | – | – | 0.94 | 1.01 | 0.96 | 0.993 | 1.01 | 1.06 | 0.989 | 1.05 | 0.622 | 0.473
NCI-H1792 | 0.719 | 0.769 | 0.66 | 0.701 | 0.642 | 0.625 | 0.473 | 0.313 | 0.109 | 0.0622 | 0.757 | – | 0.803 | 0.947 | 0.945 | 1.04 | 0.635 | 0.551 | 0.317 | 0.175
NCI-H1650 | – | – | – | – | – | 0.342 | 0.418 | 0.385 | 0.383 | 0.299 | 0.828 | 0.973 | 0.882 | 0.926 | 1.04 | 0.943 | 0.92 | 0.867 | 0.468 | 0.41
NCI-H727 | 0.535 | 0.621 | 0.505 | 0.598 | 0.694 | – | – | – | – | – | 0.836 | 0.879 | 0.864 | 0.654 | 1.11 | 0.839 | 1.02 | 0.9 | 0.487 | 0.414
EBC-1 | 0.815 | 0.806 | 0.893 | 0.857 | 0.66 | – | – | – | – | – | 0.967 | 0.929 | 1.03 | 1.01 | 0.924 | 1.05 | 0.883 | 0.724 | 0.236 | 0.244
NCI-H1623 | – | – | – | – | – | – | – | – | – | – | 0.894 | 1.03 | 0.984 | 0.937 | 1.04 | 1.14 | 0.968 | 0.918 | 0.531 | 0.402
NCI-H1648 | – | – | – | – | – | 0.779 | 0.739 | 0.896 | 0.837 | 0.52 | 0.734 | 1.01 | 0.883 | 1.01 | 1.15 | 0.842 | 0.869 | 1.01 | 0.451 | 0.319
NCI-H522 | – | – | – | – | – | 1.08 | 0.774 | 1.11 | 0.927 | 0.851 | 0.922 | 0.961 | 0.981 | 1.05 | 1 | 0.971 | 0.932 | 0.967 | 0.895 | 0.568
NCI-H1299 | 0.986 | 1.06 | 1.01 | 0.978 | 0.998 | – | – | – | – | – | 0.981 | 0.968 | 0.969 | 0.948 | 1 | 1 | 1.05 | 1.02 | 0.769 | 0.885
NCI-H2342 | – | – | – | – | – | 0.75 | 0.833 | 0.721 | 0.779 | 0.599 | 1.03 | 1.08 | 1.17 | 1.07 | 1.08 | 0.997 | 0.999 | 0.862 | 0.843 | 0.591
A549 | 0.796 | 0.666 | 0.872 | 0.79 | 0.795 | – | – | – | – | – | 0.864 | 0.985 | 0.93 | 0.968 | 1.04 | 0.995 | 0.871 | 0.729 | 0.225 | 0.182
SW 900 | – | – | – | – | – | 0.498 | 0.48 | 0.474 | 0.259 | 0.271 | 0.857 | 0.856 | 0.818 | 0.963 | 0.97 | 0.913 | 0.769 | 0.714 | 0.329 | 0.346
IA-LM | 0.793 | 1.05 | 0.925 | 0.723 | 1 | – | – | – | – | – | 0.931 | 0.914 | 0.898 | 0.953 | 1.13 | 1 | 0.837 | 0.701 | 0.273 | 0.129
ChaGo-K-1 | – | – | – | – | – | 0.27 | 0.261 | 0.255 | 0.256 | 0.247 | 0.959 | 1 | 1.05 | 1.01 | 1.12 | 0.963 | 0.964 | 0.945 | 0.909 | 0.868
ABC-1 | 0.881 | 1.01 | 1.1 | 1.26 | 1.02 | – | – | – | – | – | 0.899 | 0.963 | 0.975 | 0.985 | 1.05 | 0.954 | 0.921 | 0.868 | 0.719 | 0.458
